Measurements published in patent US20260364003A1, “EYE DROP MICROSUSPENSIONS OF MTOR INHIBITORS” (OCULIS OPERATIONS SARL, priority 2022, published 2026).

Legend:
[1] = Physicochemical characterization of lipid microsuspensions (pH, viscosity, osmolality, particle size); conditions: Table 9, lipid microsuspension containing the drug
Description: The diameter of a particle, such as a microparticle of mTOR inhibitor in oil and cyclodextrin/lipid complexes, can correspond to the D50 diameter of the particle. Diameter D50 is also known as the median diameter or the medium value of the particle size distribution. Diameter D50 corresponds to the value of the particle diameter at 50% in the cumulative distribution. For example, if D50 is 5 μm, then 50% of the particles in the sample are larger than 5 μm, and 50% smaller than 5 μm. Diameter D50 is usually used to represent the particle size of a group of particles.
The diameter and/or size of a particle can be measured according to any method known to those of ordinary skill in the art. For example, the diameter D50 is measured by laser diffraction particle size analysis. […] In particular, persons of ordinary skill in this field know that the physical properties (e.g. particle size, diameter, average diameter, mean particle size, etc.) are typically evaluated/measured using such limited, typical known techniques.
In specific embodiments, the particle size is measured by laser diffraction particle size analysis according to Pharm. […]
Following is a general procedure for preparation of a non-sterile lipid microsuspension at laboratory scale and for a total batch size of 100 g:
First, appropriate quantity of castor oil containing the dissolved drug-substance (i.e., everolimus) is transferred into a glass container. Second, under stirring with a magnetic stirrer aqueous α-cyclodextrin solution is added to the container. Third, aqueous solution containing EDTA and glycerol is added. Fourth, aqueous solution of Kolliphor HS15 is added. Mixing is continued for about 10 minutes before the stirring bar is removed and the suspension formed mixed with a high-shear homogenizer probe (Ultra-Turrax® T25 homogenizer, IKA-Werke, Germany, with probe IKA-S-25N-18G) operated at 8,000 RPM for about 10 minutes. […] The pH is adjusted to 5.3±0.1 with concentrated hydrochloric acid solution and/or sodium hydroxide solution. Finally, if needed, purified water is added to adjust the final weight of the sample to 100%.
The mixture obtained was homogenized for 10 minutes at 12,000 rpm using Ultra-Turrax® high shear homogenizer with S25N-18G probe at 12,000 rpm for 10 minutes. […] The lipid microsuspension formed was stirred by magnetic stirrer for 30 minutes at room temperature. Finally, the pH was adjusted by addition of hydrochloric acid and/or sodium hydroxide. […]

[2] = Table 9; cited from earlier work
[3] = cited from earlier work; for chemical stability of derivative: sirolimus derivatives
[4] = from the microemulsion; cited from earlier work
[5] = room temperature; cited from earlier work
[6] = Phase-solubility of everolimus in aqueous cyclodextrin solutions; type: physicochemical; conditions: pure aqueous cyclodextrin solutions, 25 °C
Description: Everolimus was added to each cyclodextrin solution in excess, the samples were continuously agitated on a magnetic stirrer for 24 hours.

C[C@@H]1C[C@H]2[C@@H]3CCC4=CC(=O)C=C[C@]4(C)[C@@]3(F)[C@@H](O)C[C@]2(C)[C@@]1(O)C(=O)CO [Dexamethasone, dexamethasone]
Osmolality [1]: 297 mOsmol/kg
Particle size Dx(10) [1]: 1.4 μm
Particle size Dx(50) [1]: 4.6 μm
Particle size Dx(90) [1]: 16 μm
Viscosity at 15 rpm [1]: 17.7 cP
pH [1]: 6.4
Drug LogP [2]: 1.9

CCOC(=O)O[C@]1(C(=O)OCCl)CC[C@H]2[C@@H]3CCC4=CC(=O)C=C[C@]4(C)[C@H]3[C@@H](O)C[C@@]21C [Loteprednol etabonate, loteprednol etabonate]
Osmolality [1]: 282 mOsmol/kg
Particle size Dx(10) [1]: 1.5 μm
Particle size Dx(50) [1]: 6.2 μm
Particle size Dx(90) [1]: 24 μm
Viscosity at 15 rpm [1]: 16.1 cP
pH [1]: 6.5
Drug LogP [2]: 3.9

CO[C@H]1C[C@@H]2CC[C@@H](C)[C@@](O)(O2)C(=O)C(=O)N2CCCC[C@H]2C(=O)O[C@H]([C@H](C)C[C@@H]2CC[C@@H](O)[C@H](OC)C2)CC(=O)[C@H](C)/C=C(\C)[C@@H](O)[C@@H](OC)C(=O)[C@H](C)C[C@H](C)/C=C/C=C/C=C/1C [Sirolimus, sirolimus]
stability in microemulsion eye drops ([3]; microemulsion eye drops containing about 25% water): stable
Osmolality [1]: 309 mOsmol/kg
Particle size Dx(10) [1]: 1.5 μm
Particle size Dx(50) [1]: 5.7 μm
Particle size Dx(90) [1]: 25 μm
Viscosity at 15 rpm [1]: 16.5 cP
pH [1]: 5.9
topical bioavailability [4]: very low
Drug LogP [2]: 6.0

C=CC[C@@H]1/C=C(\C)C[C@H](C)C[C@H](OC)[C@H]2O[C@@](O)(C(=O)C(=O)N3CCCC[C@H]3C(=O)O[C@H](/C(C)=C/[C@@H]3CC[C@@H](O)[C@H](OC)C3)[C@H](C)[C@@H](O)CC1=O)[C@H](C)C[C@@H]2OC [Tacrolimus, tacrolimus]
Osmolality [1]: 304 mOsmol/kg
Particle size Dx(10) [1]: 1.5 μm
Particle size Dx(50) [1]: 5.3 μm
Particle size Dx(90) [1]: 22 μm
Viscosity at 15 rpm [1]: 15.7 cP
pH [1]: 5.0

CO[C@H]1C[C@@H]2CC[C@@H](C)[C@@](O)(O2)C(=O)C(=O)N2CCCC[C@H]2C(=O)O[C@H]([C@H](C)C[C@@H]2CC[C@@H](OC(=O)C(C)(CO)CO)[C@H](OC)C2)CC(=O)[C@H](C)/C=C(\C)[C@@H](O)[C@@H](OC)C(=O)[C@H](C)C[C@H](C)/C=C/C=C/C=C/1C [Temsirolimus, 42-[3-hydroxy-2-(hydroxymethyl)-2-methylpropanoate]-rapamycin]
chemical stability of derivative [3]: do not improve the chemical stability
solubility in water [5]: about 7 mg/mL

CO[C@H]1C[C@@H]2CC[C@@H](C)[C@@](O)(O2)C(=O)C(=O)N2CCCC[C@H]2C(=O)O[C@H]([C@H](C)C[C@@H]2CC[C@@H](OP(C)(C)=O)[C@H](OC)C2)CC(=O)[C@H](C)/C=C(\C)[C@@H](O)[C@@H](OC)C(=O)[C@H](C)C[C@H](C)/C=C/C=C/C=C/1C [deforolimus, 42-(dimethylphosphinate)-rapamycin]
chemical stability of derivative [3]: do not improve the chemical stability
solubility in water [5]: about 7 mg/mL

OC[C@H]1O[C@@H]2O[C@H]3[C@H](O)[C@@H](O)[C@@H](O[C@H]4[C@H](O)[C@@H](O)[C@@H](O[C@H]5[C@H](O)[C@@H](O)[C@@H](O[C@H]6[C@H](O)[C@@H](O)[C@@H](O[C@H]7[C@H](O)[C@@H](O)[C@@H](O[C@H]1[C@H](O)[C@H]2O)O[C@@H]7CO)O[C@@H]6CO)O[C@@H]5CO)O[C@@H]4CO)O[C@@H]3CO [α-cyclodextrin]
affinity for everolimus [6]: lowest affinity
